In ChEMBL document CHEMBL5257142, “Targeted Degradation of KRASG12D as Potential Therapy in Cancer” (ACS Med Chem Lett, 2023) one finds Activity data, which are given here for six molecules.

The structures appear in SMILES notation.

This assay deals with GTPase KRas (Homo sapiens), P01116 [G12D]. The assay can be described thus: Protac activity at VHL/KRAS G12D in human ASPC1 cells assessed as induction of KRAS G12D protein degradation at 1 uM incubated for 24 hrs by luminescence based analysis relative to control. The format is cell-based.
Sequence of GTPase KRas (Homo sapiens), P01116 [G12D] (P01116 whole entry G12D, looked up): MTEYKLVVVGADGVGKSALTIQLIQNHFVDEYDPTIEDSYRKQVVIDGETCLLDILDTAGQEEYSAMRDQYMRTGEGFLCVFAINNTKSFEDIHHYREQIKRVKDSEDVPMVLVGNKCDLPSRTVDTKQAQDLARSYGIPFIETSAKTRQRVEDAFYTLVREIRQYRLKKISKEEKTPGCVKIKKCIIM
With `Cc1ncsc1-c1ccc([C@H](C)NC(=O)[C@@H]2C[C@@H](O)CN2C(=O)[C@@H](NC(=O)CCOCCCN2CCC[C@H]2COc2nc(N3CC4CCC(C3)N4)c3cc(Cl)c(-c4ccc(F)c5sc(N)nc45)c(F)c3n2)C(C)(C)C)cc1`, the Activity is 51.3%.

Take `Cc1ncsc1-c1ccc([C@H](C)NC(=O)[C@@H]2C[C@@H](O)CN2C(=O)[C@@H](NC(=O)CCCCN2CCC[C@H]2COc2nc(N3CC4CCC(C3)N4)c3cc(Cl)c(-c4ccc(F)c5sc(N)nc45)c(F)c3n2)C(C)(C)C)cc1`: the Activity stood at 38.1%.

Take `Cc1cc(N)nc(-c2c(Cl)cc3c(N4CC5CCC(C4)N5)nc(OC[C@@H]4CCCN4CCCOCCC(=O)N[C@H](C(=O)N4C[C@H](O)C[C@H]4C(=O)NCc4ccc(-c5scnc5C)cc4)C(C)(C)C)nc3c2F)c1C(F)(F)F`: the Activity is -0.69%.

Take `Cc1cc(N)nc(-c2c(Cl)cc3c(N4CC5CCC(C4)N5)nc(OC[C@@H]4CCCN4CCCOCCC(=O)N[C@H](C(=O)N4C[C@H](O)C[C@H]4C(=O)N[C@@H](C)c4ccc(-c5scnc5C)cc4)C(C)(C)C)nc3c2F)c1C(F)(F)F`: the Activity turned out to be 29.3%.

`Cc1cc(N)nc(-c2c(Cl)cc3c(N4CC5CCC(C4)N5)nc(OC[C@@H]4CCCN4CCCCCCCN4CCC(c5cc(F)cc6c5CN(C5CCC(=O)NC5=O)C6=O)CC4)nc3c2F)c1C(F)(F)F` (stereo partly specified): the Activity was -22.9%.

`Cc1cc(N)nc(-c2c(Cl)cc3c(N4CC5CCC(C4)N5)nc(OC[C@@H]4CCCN4CCCOCCCOc4cc(-c5scnc5C)ccc4CNC(=O)[C@@H]4C[C@@H](O)CN4C(=O)[C@H](NC(=O)C4(F)CC4)C(C)(C)C)nc3c2F)c1C(F)(F)F`: the Activity was -5.46%.
